Converted amounts (≈) assume the structure as drawn. Read-outs that look alike come from different tables or passages of the source. Marks after values point to notes of the source that are not given here.
Legend:
LYSA solubility = type: physicochemical; conditions: for LYSA: 0.05 M phosphate buffer (pH 6.5); for solubility thermodynamic: 0.05 M phosphate buffer, pH 6.5, aqueous buffer, thermodynamic from solid
Procedure: LYSA solubility assay is used to determine the aqueous solubility of a compound. Samples were prepared in duplicate from 10 mM DMSO stock solution. […] After one night, the solutions were filtered using a microtiter filter plate. Then the filtrate and its 1/10 dilution were analyzed by HPLC-UV.

[1] = Metabolic stability in human liver microsomes; conditions: 1 μM test compound, 0.5 mg/mL microsomal protein; 6.15 mL/min/kg is the limitation of assay sensitivity
Procedure: The human microsomal stability assay is used for early assessment of metabolic stability of a test compound in human liver microsomes.
Human liver microsomes (Cat. NO.: 452117, Corning, USA; Cat. NO.: H2610, Xenotech, USA) were preincubated with test compound for 10 minutes at 37° C. in 100 mM potassium phosphate buffer, pH 7.4. The reactions were initiated by adding NADPH regenerating system. The final incubation mixtures contained 1 μM test compound, 0.5 mg/mL liver microsomal protein, 1 mM MgCL2, 1 mM NADP, 1 unit/mL isocitric dehydrogenase and 6 mM isocitric acid in 100 mM potassium phosphate buffer, pH 7.4. After incubation times of 0, 3, 6, 9, 15 and 30 minutes at 37° C., 300 μL of cold ACN (including internal standard) was added to 100 μL incubation mixture to terminate the reaction. Following precipitation and centrifugation, the amount of compound remaining in the samples were determined by LC-MS/MS. Controls of no NADPH regenerating system at zero and 30 minutes were also prepared and analyzed.

human TLR7 = human TLR7 (Homo sapiens (Human), UniProt Q9NYK1); test: HEK-Blue-hTLR7 cells assay (SEAP reporter); type: cell-based; conditions: 20 hrs
Procedure: (§1) A stable HEK-Blue-hTLR7 cell line was purchased from InvivoGen (Cat.#: hkb-htlr7, San Diego, Calif., USA). These cells were designed for studying the stimulation of human TLR7 by monitoring the activation of NF-κB. […] Therefore the reporter expression was regulated by the NF-κB promoter upon stimulation of human TLR7 for 20 hrs. The cell culture supernatant SEAP reporter activity was determined using QUANTI-Blue™ kit (Cat.#: rep-qb1, Invivogen, San Diego, Ca, USA) at a wavelength of 640 nm, a detection medium that turns purple or blue in the presence of alkaline phosphatase.
(§2) HEK-Blue-hTLR7 cells were incubated at a density of 250,000˜450,000 cells/mL in a volume of 180 μL in a 96-well plate in Dulbecco's Modified Eagle's medium (DMEM) containing 4.5 g/L glucose, 50 U/mL penicillin, […], […], 2 mM L-glutamine, 10% (V/V) heat-inactivated fetal bovine serum for 24 hrs. Then the HEK-Blue-hTLR-7 cells were incubated with addition of 20 μL test compound in a serial dilution in the presence of final DMSO at 1% and perform incubation under 37° C. in a CO2 incubator for 20 hrs. Then 20 μL of the supernatant from each well was incubated with 180 μL Quanti-blue substrate solution at 37° C. for 2 hrs and the absorbance was read at 620˜655 nm using a spectrophotometer. The signalling pathway that TLR7 activation leads to downstream NF-κB activation has been widely accepted, and therefore similar reporter assay was also widely used for evaluating TLR7 agonist (Tsuneyasu Kaisho and Takashi Tanaka, Trends in Immunology, Volume 29, Issue 7, July 2008, […]; Hiroaki Hemmi et al, Nature Immunology 3, 196-200 (2002)).

human TLR8 = human TLR8 (Homo sapiens (Human), UniProt Q9NR97); test: HEK-Blue-hTLR8 cells assay and selectivity index; type: cell-based; conditions: for Selective index: EC50(TLR8) value/EC50(TLR7) value
Procedure: as §1, with “HEK-Blue-hTLR8” for “HEK-Blue-hTLR7”, “HEK-Blue-htlr8,” for “hkb-htlr7,”, “TLR8” for “TLR7”
as §2, with “HEK-Blue-hTLR8 cells” for “HEK-Blue-hTLR7 cells”, “the HEK-Blue-hTLR8” for “the HEK-Blue-hTLR-7”, “2 hours” for “2 hrs”, “that TLR8” for “that TLR7”, “evaluating TLR8” for “evaluating TLR7”
The ratio of TLR8 agonism activity compared to TLR7 agonism activity was defined as the selectivity index (EC50 (TLR8) value/EC50(TLR7) value) and calculated accordingly.

[2] = read-out: HEK-Blue-hTLR7 (EC50 (μM))

Sequence of human TLR7 (Q9NYK1 27-1049): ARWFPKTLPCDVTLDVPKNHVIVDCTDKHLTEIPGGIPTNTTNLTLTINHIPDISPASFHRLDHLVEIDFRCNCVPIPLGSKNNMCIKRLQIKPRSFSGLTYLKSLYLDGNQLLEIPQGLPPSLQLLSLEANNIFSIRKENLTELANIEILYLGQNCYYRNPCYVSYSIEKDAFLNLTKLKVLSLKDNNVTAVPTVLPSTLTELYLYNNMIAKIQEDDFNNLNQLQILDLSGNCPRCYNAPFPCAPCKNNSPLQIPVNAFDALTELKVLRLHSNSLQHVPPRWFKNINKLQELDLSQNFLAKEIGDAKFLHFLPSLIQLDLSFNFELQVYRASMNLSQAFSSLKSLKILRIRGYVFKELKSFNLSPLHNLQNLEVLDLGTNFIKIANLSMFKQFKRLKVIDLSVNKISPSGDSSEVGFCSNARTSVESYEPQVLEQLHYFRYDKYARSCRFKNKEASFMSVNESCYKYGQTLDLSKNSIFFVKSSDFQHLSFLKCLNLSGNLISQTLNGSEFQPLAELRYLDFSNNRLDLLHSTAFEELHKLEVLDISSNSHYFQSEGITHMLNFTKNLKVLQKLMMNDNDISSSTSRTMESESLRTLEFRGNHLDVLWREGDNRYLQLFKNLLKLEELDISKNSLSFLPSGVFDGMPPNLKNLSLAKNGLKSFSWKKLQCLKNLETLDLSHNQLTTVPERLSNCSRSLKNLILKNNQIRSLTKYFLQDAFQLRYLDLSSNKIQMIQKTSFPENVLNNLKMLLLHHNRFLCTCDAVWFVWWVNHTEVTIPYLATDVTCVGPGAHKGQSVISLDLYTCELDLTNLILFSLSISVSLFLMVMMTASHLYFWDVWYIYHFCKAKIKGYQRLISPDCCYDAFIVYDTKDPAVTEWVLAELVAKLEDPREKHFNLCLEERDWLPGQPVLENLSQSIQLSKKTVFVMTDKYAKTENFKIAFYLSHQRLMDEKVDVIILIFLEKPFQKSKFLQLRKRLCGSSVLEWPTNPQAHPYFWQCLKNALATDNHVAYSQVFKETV
Sequence of human TLR8 (Q9NR97 27-1041): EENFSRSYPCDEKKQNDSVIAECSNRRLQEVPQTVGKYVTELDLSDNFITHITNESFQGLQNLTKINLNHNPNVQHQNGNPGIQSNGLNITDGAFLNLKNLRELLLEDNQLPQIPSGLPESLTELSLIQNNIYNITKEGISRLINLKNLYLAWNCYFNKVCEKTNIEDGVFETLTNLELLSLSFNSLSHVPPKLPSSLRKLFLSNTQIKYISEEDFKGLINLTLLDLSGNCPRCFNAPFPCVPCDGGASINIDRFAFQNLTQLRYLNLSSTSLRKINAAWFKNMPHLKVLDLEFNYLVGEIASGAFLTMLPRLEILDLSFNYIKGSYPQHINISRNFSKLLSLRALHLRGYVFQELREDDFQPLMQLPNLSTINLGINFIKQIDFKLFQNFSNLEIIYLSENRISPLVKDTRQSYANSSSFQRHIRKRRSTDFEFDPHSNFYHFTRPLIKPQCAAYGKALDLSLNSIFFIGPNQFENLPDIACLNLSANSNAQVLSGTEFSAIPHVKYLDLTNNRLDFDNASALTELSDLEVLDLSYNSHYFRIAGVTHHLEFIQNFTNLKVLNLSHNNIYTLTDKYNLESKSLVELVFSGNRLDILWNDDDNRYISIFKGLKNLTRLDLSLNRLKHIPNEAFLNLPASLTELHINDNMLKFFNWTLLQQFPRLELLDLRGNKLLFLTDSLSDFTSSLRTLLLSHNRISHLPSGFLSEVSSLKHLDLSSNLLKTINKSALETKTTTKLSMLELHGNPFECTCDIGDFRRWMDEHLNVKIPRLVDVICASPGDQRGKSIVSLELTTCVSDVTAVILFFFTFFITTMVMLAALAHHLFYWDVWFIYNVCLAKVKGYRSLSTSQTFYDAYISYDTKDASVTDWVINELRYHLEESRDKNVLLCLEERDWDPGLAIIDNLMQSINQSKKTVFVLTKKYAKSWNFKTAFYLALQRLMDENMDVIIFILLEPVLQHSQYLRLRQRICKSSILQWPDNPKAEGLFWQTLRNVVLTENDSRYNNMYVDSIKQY

Row | SMILES | Human Liver Microsome Clearance [1] | solubility thermodynamic (LYSA solubility) | EC50 (human TLR7; [2]) | also measured
1 | CS(=N)(=O)c1nc(N)c2[nH]c(=O)n(Cc3ccccc3)c2n1 (single isomer, unassigned) [Example 1-A, 6-Amino-9-benzyl-2-(methylsulfonimidoyl)-7H-purin-8-one] | <6.15 mL/min/kg |  |  | LYSA (LYSA solubility): 85 µg/mL
2 | COCCS(=N)(=O)c1nc(N)c2[nH]c(=O)n(Cc3ccccc3)c2n1 (single isomer, unassigned) [Example 3-A, 6-Amino-9-benzyl-2-(2-methoxyethylsulfonimidoyl)-7H-purin-8-one] | <6.15 mL/min/kg |  |  | 
3 | CCS(=N)(=O)c1nc(N)c2[nH]c(=O)n(Cc3ccc(C)cc3)c2n1 (single isomer, unassigned) [Example 71-B, 6-Amino-2-(ethylsulfonimidoyl)-9-(p-tolylmethyl)-7H-purin-8-one] | <6.15 mL/min/kg |  |  | LYSA (LYSA solubility): 13 µg/mL
4 | CCS(=N)(=O)c1nc(N)c2[nH]c(=O)n(Cc3ccc(F)cc3)c2n1 (single isomer, unassigned) [Example 72-A, 6-Amino-2-(ethylsulfonimidoyl)-9-[(4-fluorophenyl)methyl]-7H-purin-8-one] | <6.15 mL/min/kg | 90 µg/mL (≈ 257 µM) |  | 
5 | CCS(=N)(=O)c1nc(N)c2[nH]c(=O)n(Cc3ccc(F)cc3)c2n1 (single isomer, unassigned) [Example 72-B, 6-Amino-2-(ethylsulfonimidoyl)-9-[(4-fluorophenyl)methyl]-7H-purin-8-one] | <6.15 mL/min/kg |  |  | LYSA (LYSA solubility): 115 µg/mL
6 | CS(=N)(=O)c1nc(N)c2[nH]c(=O)n(Cc3ccccc3)c2n1 (stereo not drawn) [Example 1, 6-Amino-9-benzyl-2-(methylsulfonimidoyl)-7H-purin-8-one] |  |  | 0.3 µM | Human Liver Microsome Clearance (mL/min/kg) [1]: <6.15* mL/min/kg
7 | CCS(=N)(=O)c1nc(N)c2[nH]c(=O)n(Cc3ccccc3)c2n1 (stereo not drawn) [Example 2, 6-Amino-9-benzyl-2-(ethylsulfonimidoyl)-7H-purin-8-one] | <6.15 mL/min/kg | 29 µg/mL (≈ 87.2 µM) | 0.2 µM | 
8 | COCCS(=N)(=O)c1nc(N)c2[nH]c(=O)n(Cc3ccccc3)c2n1 (stereo not drawn) [Example 3, 6-Amino-9-benzyl-2-(2-methoxyethylsulfonimidoyl)-7H-purin-8-one] | <6.15 mL/min/kg | 300 µg/mL (≈ 828 µM) | 0.33 µM | 
9 | CCCCS(=N)(=O)c1nc(N)c2[nH]c(=O)n(Cc3ccccc3)c2n1 (stereo not drawn) [Example 5, 6-Amino-9-benzyl-2-(butylsulfonimidoyl)-7H-purin-8-one] | <6.15 mL/min/kg | 40 µg/mL (≈ 111 µM) | 0.32 µM | 
10 | CS(=N)(=O)c1nc(N)c2[nH]c(=O)n(Cc3cccnc3)c2n1 (stereo not drawn) [Example 16, 6-Amino-2-(methylsulfonimidoyl)-9-(3-pyridylmethyl)-7H-purin-8-one] |  |  | 0.22 µM | EC50 (human TLR8): > 1000 µM; Selective index (human TLR8): >4546
11 | CS(=N)(=O)c1nc(N)c2[nH]c(=O)n(Cc3ccncc3)c2n1 (stereo not drawn) [Example 20, 6-Amino-2-(methylsulfonimidoyl)-9-(4-pyridylmethyl)-7H-purin-8-one] |  |  | 0.26 µM | EC50 (human TLR8): > 1000 µM; Selective index (human TLR8): >3846
12 | CCCS(=N)(=O)c1nc(N)c2[nH]c(=O)n(Cc3ccc(F)cc3F)c2n1 (stereo not drawn) [Example 31, 6-Amino-9-[(2,4-difluorophenyl)methyl]-2-(propylsulfonimidoyl)-7H-purin-8-one] | <6.15 mL/min/kg |  | 0.04 µM | 
13 | CCCS(=N)(=O)c1nc(N)c2[nH]c(=O)n(Cc3ccc(C#N)cc3)c2n1 (stereo not drawn) [Example 32, 4-[[6-Amino-8-oxo-2-(propylsulfonimidoyl)-7H-purin-9-yl]methyl]benzonitrile] | <6.15 mL/min/kg | 18 µg/mL (≈ 48.5 µM) |  | EC50 (human TLR7; HEK-Blue-hTLR7 (EC50 (μM))): 0.054 µM
14 | CCCS(=N)(=O)c1nc(N)c2[nH]c(=O)n(Cc3ccc(C(N)=O)cc3)c2n1 (stereo not drawn) [Example 33, 4-[[6-amino-8-oxo-2-(propylsulfonimidoyl)-7H-purin-9-yl]methyl]benzamide] | <6.15 mL/min/kg | 79 µg/mL (≈ 203 µM) | 0.066 µM | 
15 | CCCS(=N)(=O)c1nc(N)c2[nH]c(=O)n(Cc3ccnc(C)c3)c2n1 (stereo not drawn) [Example 35, 6-Amino-9-[(2-methyl-4-pyridyl)methyl]-2-(propylsulfonimidoyl)-7H-purin-8-one] | <6.15 mL/min/kg |  | 0.12 µM | 
16 | CCCS(=N)(=O)c1nc(N)c2[nH]c(=O)n(Cc3ccc(S(C)(=O)=O)cc3)c2n1 (stereo not drawn) [Example 37, 6-Amino-9-[(4-methylsulfonylphenyl)methyl]-2-(propylsulfonimidoyl)-7H-purin-8-one] | <6.15 mL/min/kg |  | 0.023 µM | 
17 | CCCS(=N)(=O)c1nc(N)c2[nH]c(=O)n(Cc3ccc(C(=O)NCCOC)cc3)c2n1 (stereo not drawn) [Example 40, 4-[[6-Amino-8-oxo-2-(propylsulfonimidoyl)-7H-purin-9-yl]methyl]-N-(2-methoxyethyl)benzamide] | <6.15 mL/min/kg | 168 µg/mL (≈ 375 µM) | 0.15 µM | 
18 | CCCS(=N)(=O)c1nc(N)c2[nH]c(=O)n(Cc3cncnc3)c2n1 (stereo not drawn) [Example 43, 6-Amino-2-(propylsulfonimidoyl)-9-(pyrimidin-5-ylmethyl)-7H-purin-8-one] | <6.15 mL/min/kg | > 465 µg/mL | 0.24 µM | 
19 | CCCS(=N)(=O)c1nc(N)c2[nH]c(=O)n(Cc3cnc(C)nc3)c2n1 (stereo not drawn) [Example 44, 6-Amino-9-[(2-methylpyrimidin-5-yl)methyl]-2-(propylsulfonimidoyl)-7H-purin-8-one] | <6.15 mL/min/kg | 357 µg/mL (≈ 985 µM) | 0.136 µM | 
20 | CCS(=N)(=O)c1nc(N)c2[nH]c(=O)n(Cc3ccc(F)cc3)c2n1 (stereo not drawn) [Example 72, 6-Amino-2-(ethylsulfonimidoyl)-9-[(4-fluorophenyl)methyl]-7H-purin-8-one] | <6.15 mL/min/kg | 152 µg/mL (≈ 434 µM) |  | 
21 | CNC(=O)c1nc(N)c2[nH]c(=O)n(Cc3ccccc3)c2n1 [Example P-5, reference compound] |  |  | 3.14 µM | EC50 (human TLR8; HEK-Blue-hTLR8 cells, SEAP reporter, 20 hrs, read-out: HEK Blue hTLR-8 EC50): > 1000 µM

Reference: patent US9708325B2, “Sulfonimidoylpurinone compounds and derivatives for the treatment and prophylaxis of virus infection” (Hoffmann-La Roche Inc., priority 2015, dated 2017)
